Source: ChEMBL document CHEMBL2016478, “Lead optimisation of the N1 substituent of a novel series of indazole arylsulfonamides as CCR4 antagonists and identification of a candidate for clinical investigation” (Bioorg Med Chem Lett, 2012)
≈ marks a conversion by molar mass, not a printed value.

Columns and labels:
[1] = target: T1, C-C chemokine receptor type 4 (Homo sapiens, UniProt P51679); experiment: Antagonist activity at human CCR4 expressed in CHO membranes assessed as inhibition of [35S]-GTPgammaS binding by scintillation counting; assay type: functional, cell membranes
T1 sequence (P51679 whole entry): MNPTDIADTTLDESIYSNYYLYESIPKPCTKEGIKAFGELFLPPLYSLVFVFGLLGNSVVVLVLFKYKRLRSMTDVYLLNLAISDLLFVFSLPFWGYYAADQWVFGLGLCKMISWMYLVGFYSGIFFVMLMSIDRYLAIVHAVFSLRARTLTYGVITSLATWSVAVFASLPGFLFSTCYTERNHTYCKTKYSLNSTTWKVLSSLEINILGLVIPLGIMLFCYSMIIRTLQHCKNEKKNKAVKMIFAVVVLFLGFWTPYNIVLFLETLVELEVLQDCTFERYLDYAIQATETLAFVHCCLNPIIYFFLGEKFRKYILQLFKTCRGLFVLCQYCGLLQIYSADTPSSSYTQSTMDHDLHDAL

[2] = Solubility of the compound by chemiluminescent nitrogen detection assay; assay type: physicochemical
[3] = target: T1, C-C chemokine receptor type 4
Description: Displacement of [125I]TARC from human CCR4 expressed in CHO membranes by SPA

[4] = target: T1, C-C chemokine receptor type 4; experiment: Antagonist activity at human CCR4 in human whole blood assessed as inhibition of TARC-induced CD4+ CCR4+lymphocyte chemotaxis measuring F-actin content; assay type: functional, tissue-based; conditions: read-out: pA2 (converted)
[5] = Permeability across MDCK cells; assay type: ADME, cell-based, Canis lupus familiaris; conditions: dog, read-out: permeability
[6] = Clearance in CD rat at 1 mg/kg, iv and 1 mg/kg, po; conditions: in vivo
[7] = Volume of distribution at steady state in CD rat at 1 mg/kg, iv and 1 mg/kg, po; assay type: ADME, organism-based; conditions: in vivo, read-out: Vdss
[8] = Oral bioavailability in CD rat at 1 mg/kg; assay type: ADME, organism-based; conditions: in vivo
[9] = Oral bioavailability in beagle dog at 1.1 mg/kg; assay type: ADME, organism-based, Canis lupus familiaris; conditions: in vivo
[10] = Clearance in beagle dog at […], iv and 1.1 mg/kg, po; assay type: ADME, organism-based, Canis lupus familiaris; conditions: in vivo
[11] = Volume of distribution at steady state in beagle dog at […], iv and 1.1 mg/kg, po; assay type: ADME, organism-based, Canis lupus familiaris; conditions: in vivo, read-out: Vdss
[12] = tested on: Rattus norvegicus; experiment: Clearance in CD rat at 1 mg/kg, iv and 1 mg/kg, po relative to liver blood flow; assay type: ADME, organism-based; conditions: in vivo
[13] = tested on: Canis familiaris; experiment: Clearance in beagle dog at […], iv and 1.1 mg/kg, po relative to liver blood flow; assay type: ADME, organism-based, Canis lupus familiaris; conditions: in vivo
[14] = Volume of distribution at steady state in beagle dog at 0.54 mg/kg, iv and 1.1 mg/kg, po; assay type: ADME, organism-based, Canis lupus familiaris; conditions: in vivo, read-out: Vdss

IC50 [1] [µM]	solubility [2] [µg/mL]	Ki [3] [µM]	Kb [4] [µM]	Structure (SMILES)	further results
0.324	74 (≈ 159 µM)	0.251		COc1cccc2c1c(NS(=O)(=O)c1ccc(Cl)s1)nn2Cc1ccccc1CO	
0.0126	146 (≈ 273 µM)	0.00794	0.631	COc1cccc2c1c(NS(=O)(=O)c1ccc(Cl)s1)nn2Cc1cccc(CNC(=O)C(C)O)c1 (centres undefined)	
0.129	151 (≈ 291 µM)			COc1cccc2c1c(NS(=O)(=O)c1ccc(Cl)s1)nn2Cc1cccc(CN(C)C(C)=O)c1	
0.0794	167 (≈ 340 µM)	0.316		CNC(=O)c1cccc(Cn2nc(NS(=O)(=O)c3ccc(Cl)s3)c3c(OC)cccc32)c1	
0.389	1 (≈ 2.3 µM)	0.251	6.31	COc1cccc2c1c(NS(=O)(=O)c1ccc(Cl)s1)nn2Cc1ccccc1	
	104 (≈ 206 µM)	0.158		COc1cccc2c1c(NS(=O)(=O)c1ccc(Cl)s1)nn2Cc1ccc(CNC(C)=O)cc1	
0.0275	167 (≈ 321 µM)	0.0158	2	COc1cccc2c1c(NS(=O)(=O)c1ccc(Cl)s1)nn2Cc1cccc(CNC(=O)CO)c1	
0.0479	123 (≈ 265 µM)	0.0501		COc1cccc2c1c(NS(=O)(=O)c1ccc(Cl)s1)nn2Cc1ccc(CO)cc1	
0.055	140 (≈ 294 µM)	0.0398	1.58	COc1cccc2c1c(NS(=O)(=O)c1ccc(Cl)s1)nn2Cc1cccc(C(N)=O)c1	
0.0229	46 (≈ 93.1 µM)	0.02	2.51	COc1ccc(Cn2nc(NS(=O)(=O)c3ccc(Cl)s3)c3c(OC)cccc32)cc1OC	
0.0148	162 (≈ 295 µM)	0.01	0.631	COc1cccc2c1c(NS(=O)(=O)c1ccc(Cl)s1)nn2Cc1cccc(CNC(=O)C(C)(C)O)c1	Papp [5]: 13.2 ×10⁻⁶ cm/s; clearance [6]: 15 mL/min/kg; Vd [7]: 1.9 L/kg; bioavailability [8]: 85%; bioavailability [9]: 97%; clearance [10]: 9 mL/min/kg; Vd [11]: 2.2 L/kg; CLH [12]: 18%; CLH [13]: 29%
	170 (≈ 308 µM)			COc1ccc(COc2nc(Br)cnc2NS(=O)(=O)c2ccc(C)cc2)cc1OCCN(C)C	
0.158	12 (≈ 25.9 µM)	0.126		COc1cccc(Cn2nc(NS(=O)(=O)c3ccc(Cl)s3)c3c(OC)cccc32)c1	
0.0324	127 (≈ 274 µM)	0.0398	6.31	COc1cccc2c1c(NS(=O)(=O)c1ccc(Cl)s1)nn2Cc1cccc(CO)c1	
	12 (≈ 25.9 µM)	0.158		COc1ccccc1Cn1nc(NS(=O)(=O)c2ccc(Cl)s2)c2c(OC)cccc21	
	7 (≈ 15.1 µM)	0.251		COc1ccc(Cn2nc(NS(=O)(=O)c3ccc(Cl)s3)c3c(OC)cccc32)cc1	
0.0912	17 (≈ 36.7 µM)	0.1	1	COc1cccc2c1c(NS(=O)(=O)c1ccc(Cl)s1)nn2Cc1cccc(CN)c1	
	124 (≈ 246 µM)			COc1cccc2c1c(NS(=O)(=O)c1ccc(Cl)s1)nn2Cc1cccc(CNC(C)=O)c1	Papp [5]: 25.4 ×10⁻⁶ cm/s; Vd [7]: 0.57 L/kg; bioavailability [8]: 100%; Vd [14]: 3.2 L/kg; bioavailability [9]: 49%
	160 (≈ 317 µM)			COc1cccc2c1c(NS(=O)(=O)c1ccc(Cl)s1)nn2Cc1cccc(C(=O)N(C)C)c1	
